Experimental findings from patent US9783552B2, “Soluble guanylate cyclase activators” (MERCK SHARP & DOHME CORP., priority 2013, dated 2017) are described below.

The assay addresses T1, sGC α1/β1 heterodimer (Homo sapiens, UniProt Q02108+Q02153).
T1 construct: expressed in transfected cells
T1 sequence (Q02108 1-690): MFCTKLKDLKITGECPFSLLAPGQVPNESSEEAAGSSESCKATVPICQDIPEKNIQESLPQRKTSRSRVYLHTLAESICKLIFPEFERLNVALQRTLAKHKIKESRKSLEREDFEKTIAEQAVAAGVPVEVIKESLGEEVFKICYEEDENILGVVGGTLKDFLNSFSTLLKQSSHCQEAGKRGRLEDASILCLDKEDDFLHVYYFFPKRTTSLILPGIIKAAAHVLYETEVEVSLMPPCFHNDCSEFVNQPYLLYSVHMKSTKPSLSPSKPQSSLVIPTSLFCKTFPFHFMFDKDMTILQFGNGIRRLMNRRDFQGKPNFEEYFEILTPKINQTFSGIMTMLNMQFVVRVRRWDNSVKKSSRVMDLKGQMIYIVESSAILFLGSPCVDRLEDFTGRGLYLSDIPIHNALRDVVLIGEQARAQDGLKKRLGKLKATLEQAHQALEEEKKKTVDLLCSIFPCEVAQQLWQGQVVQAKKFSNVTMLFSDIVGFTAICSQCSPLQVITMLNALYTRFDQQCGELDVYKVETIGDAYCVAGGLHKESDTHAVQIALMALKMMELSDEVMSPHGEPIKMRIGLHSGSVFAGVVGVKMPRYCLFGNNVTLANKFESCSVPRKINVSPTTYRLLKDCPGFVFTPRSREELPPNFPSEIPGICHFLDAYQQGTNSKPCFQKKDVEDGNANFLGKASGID
T1 sequence (Q02153 1-619): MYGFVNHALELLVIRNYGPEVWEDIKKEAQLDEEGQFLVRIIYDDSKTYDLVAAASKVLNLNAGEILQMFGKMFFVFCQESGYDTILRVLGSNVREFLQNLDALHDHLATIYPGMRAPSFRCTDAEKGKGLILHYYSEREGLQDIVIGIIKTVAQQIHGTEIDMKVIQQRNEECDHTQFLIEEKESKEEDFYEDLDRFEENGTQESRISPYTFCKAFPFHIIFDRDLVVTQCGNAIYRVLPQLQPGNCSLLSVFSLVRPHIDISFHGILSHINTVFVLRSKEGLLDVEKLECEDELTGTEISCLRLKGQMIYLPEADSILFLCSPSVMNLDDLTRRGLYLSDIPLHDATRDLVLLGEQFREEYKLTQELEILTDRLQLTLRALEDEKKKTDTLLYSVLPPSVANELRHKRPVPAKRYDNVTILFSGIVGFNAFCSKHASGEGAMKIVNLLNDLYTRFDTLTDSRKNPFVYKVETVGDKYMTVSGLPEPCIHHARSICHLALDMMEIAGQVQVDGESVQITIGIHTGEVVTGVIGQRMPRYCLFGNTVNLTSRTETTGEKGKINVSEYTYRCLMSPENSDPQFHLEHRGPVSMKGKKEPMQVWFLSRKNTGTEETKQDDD
Briefly: Cell-Based sGC Functional Assay (CASA Assay). Conditions: CHO-K1/sGC cells; for EC50: intracellular cGMP by HTRF, 1 hr at 37° C., IP from 4P fit, presence or absence of 1 μM DETA-NO not given; for Emax: cGMP as percentage of maximum cGMP production of Compound A (=100% activation), read-out: % ACT (percent activation). The method in brief: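 CHO-K1 cells stably expressing human sGC α1/β1 were incubated with compound (2.5% DMSO) for 1 hr at 37 °C with 0.5 mM IBMX, with or without 1 μM DETA-NO. Intracellular cGMP was measured by HTRF and expressed as % of the maximal cGMP produced by a reference sGC heme-dependent activator. IP and maximum fold induction came from a 4-parameter fit.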
Background: Time-resolved FRET reads energy transfer from a long-lived donor to a nearby acceptor.

In the case of `Cn1ncc2c(-c3nc(N)c4c(n3)NC(=O)C4(C)NC(=O)CC3CC3)nc(CCC(F)(F)C(F)(F)F)nc21` (centres unmarked) [Example 52, N-(4-Amino-5-methyl-2-(1-methyl-6-(3,3,4,4,4-pentafluorobutyl)-1H-pyrazolo[3,4-d]pyrimidin-4-yl)-6-oxo-6,7-dihydro-5H-pyrrolo[2,3-d]pyrimidin-5-yl)-2-cyclopropylacetamide], a half-maximal response (EC50) required 614 nM and the Emax turned out to be 92%.

Turning to `CC(C)NC1(C)C(=O)Nc2nc(-c3nc(CCC(F)(F)C(F)(F)F)nc4c3cnn4C)nc(N)c21` (centres unmarked) [Example 55, 4-Amino-5-(isopropylamino)-5-methyl-2-(1-methyl-6-(3,3,4,4,4-pentafluorobutyl)-1H-pyrazolo[3,4-d]pyrimidin-4-yl)-5H-pyrrolo[2,3-d]pyrimidin-6(7H)-one], the concentration for a half-maximal effect (EC50) amounted to 119 nM and the Emax was 118%.

Turning to `[2H]C([2H])([2H])n1ncc2c(-c3nc(N)c4c(n3)NC(=O)C4(C(N)=O)C(C)C)nc(CCC(F)(F)C(F)(F)F)nc21` (single isomer, unassigned) [Example 37, 4-Amino-5-isopropyl-2-(6-(3,3,4,4,4-pentafluorobutyl)-1-trideuteriomethyl-1H-pyrazolo[3,4-d]pyrimidin-4-yl)-6-oxo-6,7-dihydro-5H-pyrrolo[2,3-d]pyrimidine-5-carboxamide], the EC50 worked out at 540 nM and the Emax was determined as 93%.

Consider `Cn1ncc2c(-c3nc(N)c4c(n3)NC(=O)C4(C)c3ccc(F)cc3)nc(CCC(F)(F)F)nc21` (single isomer, unassigned) [Example 11, 4-Amino-5-(4-fluorophenyl)-5-methyl-2-(1-methyl-6-(3,3,3-trifluoropropyl)-1H-pyrazolo[3,4-d]pyrimidin-4-yl)-5H-pyrrolo[2,3-d]pyrimidin-6(7H)-one], for which the EC50 turned out to be 146 nM and the Emax amounted to 121%.

Regarding `Cn1ccc2c(-c3nc(N)c4c(n3)NC(=O)C4(C)c3ccccc3)nc(Cc3cccc(F)c3F)nc21` (single isomer, unassigned) [Example 64, 4-Amino-2′-(2,3-difluorobenzyl)-5,7′-dimethyl-5-phenyl-5H,7′H-[2,4′-bipyrrolo[2,3-d]pyrimidin]-6(7H)-one], the EC50 came to 12 nM and the Emax stood at 83%.

As to `[2H]C([2H])([2H])n1ccc2c(-c3nc(N)c4c(n3)NC(=O)C4(C)c3ccccc3)nc(CCC(F)(F)C(F)(F)F)nc21` (single isomer, unassigned) [Example 60, 4-Amino-5-methyl-2′-(3,3,4,4,4-pentafluorobutyl)-5-phenyl-7′-trideuteriomethyl-5H,7′H-[2,4′-bipyrrolo[2,3-d]pyrimidin]-6(7H)-one], the 50% effective concentration (EC50) amounted to 47 nM and the Emax is 106%.

Take `[2H]C([2H])([2H])n1ncc2c(-c3nc(N)c4c(n3)NC(=O)C4(C)C(=O)NCC)nc(CCC(F)(F)C(F)(F)F)nc21` (single isomer, unassigned) [Example 39, 4-Amino-N-ethyl-5-methyl-2-(6-(3,3,4,4,4-pentafluorobutyl)-1-trideuteriomethyl-1H-pyrazolo[3,4-d]pyrimidin-4-yl)-6-oxo-6,7-dihydro-5H-pyrrolo[2,3-d]pyrimidine-5-carboxamide]: a half-maximal effect (EC50) was put at 43 nM and the Emax turned out to be 104%.

In the case of `[2H]C([2H])([2H])n1ncc2c(-c3nc(N)c4c(n3)NC(=O)C4(C)c3ccc(O)cc3)nc(CCC(F)(F)C(F)(F)F)nc21` (single isomer, unassigned) [Example 43, 4-Amino-5-(4-hydroxyphenyl)-5-methyl-2-(6-(3,3,4,4,4-pentafluorobutyl)-1-trideuteriomethyl-1H-pyrazolo[3,4-d]pyrimidin-4-yl)-5H-pyrrolo[2,3-d]pyrimidin-6(7H)-one], the EC50 is 209 nM and the Emax amounted to 110%.

Turning to `CC1(c2ccc(F)cc2)C(=O)Nc2nc(-c3nc(CCC(F)(F)C(F)(F)F)nc4[nH]ncc34)nc(N)c21` (single isomer, unassigned) [Example 8, 4-Amino-5-(4-fluorophenyl)-5-methyl-2-(6-(3,3,4,4,4-pentafluorobutyl)-1H-pyrazolo[3,4-d]pyrimidin-4-yl)-5H-pyrrolo[2,3-d]pyrimidin-6(7H)-one], the response was half-maximal at 341 nM (EC50) and the Emax was determined as 109%.

In the case of `[2H]C([2H])([2H])n1ncc2c(-c3nc(N)c4c(n3)NC(=O)C4(C)C#C)nc(CCC(F)(F)C(F)(F)F)nc21` (single isomer, unassigned) [Example 22, 4-Amino-5-ethynyl-5-methyl-2-(6-(3,3,4,4,4-pentafluorobutyl)-1-trideuteriomethyl-1H-pyrazolo[3,4-d]pyrimidin-4-yl)-5H-pyrrolo[2,3-d]pyrimidin-6(7H)-one], the EC50 turned out to be 46 nM and the Emax was 128%.

For `CCn1ncc2c(-c3nc(N)c4c(n3)NC(=O)C4(C)c3ccc(F)cc3)nc(CCC(F)(F)C(F)(F)F)nc21` (single isomer, unassigned) [Example 19, 4-Amino-2-(1-ethyl-6-(3,3,4,4,4-pentafluorobutyl)-1H-pyrazolo[3,4-d]pyrimidin-4-yl)-5-(4-fluorophenyl)-5-methyl-5H-pyrrolo[2,3-d]pyrimidin-6(7H)-one], a half-maximal effect (EC50) was put at 53 nM and the Emax turned out to be 119%.

For the compound `[2H]C([2H])([2H])n1ncc2c(-c3nc(N)c4c(n3)NC(=O)C4(C(=O)Nc3ccccn3)C3CC3)nc(CCC(F)(F)C(F)(F)F)nc21` (single isomer, unassigned) [Example 41, 4-Amino-5-cyclopropyl-2-(6-(3,3,4,4,4-pentafluorobutyl)-1-trideuteriomethyl-1H-pyrazolo[3,4-d]pyrimidin-4-yl)-6-oxo-N-(pyridin-2-yl)-6,7-dihydro-5H-pyrrolo[2,3-d]pyrimidine-5-carboxamide], it took 77 nM to reach a half-maximal effect (EC50) and the Emax amounted to 100%.

With `Cn1ncc2c(-c3nc(N)c4c(n3)NC(=O)C4(C)c3ccc(Br)cc3)nc(CCC(F)(F)C(F)(F)F)nc21` (single isomer, unassigned) [Example 10, 4-Amino-5-(4-bromophenyl)-5-methyl-2-(1-methyl-6-(3,3,4,4,4-pentafluorobutyl)-1H-pyrazolo[3,4-d]pyrimidin-4-yl)-5H-pyrrolo[2,3-d]pyrimidin-6(7H)-one], the midpoint of the response, the EC50, lay at 197 nM and the Emax was 116%.

Turning to `Cn1ncc2c(-c3nc(N)c4c(n3)NC(=O)C4(C(=O)NC3CC3)C3CC3)nc(CCC(F)(F)C(F)(F)F)nc21` (single isomer, unassigned) [Example 33, 4-Amino-N,5-dicyclopropyl-2-(1-methyl-6-(3,3,4,4,4-pentafluorobutyl)-1H-pyrazolo[3,4-d]pyrimidin-4-yl)-6-oxo-6,7-dihydro-5H-pyrrolo[2,3-d]pyrimidine-5-carboxamide], the EC50 was determined as 53 nM and the Emax is 112%.

In the case of `[2H]C([2H])([2H])n1ncc2c(-c3nc(N)c4c(n3)NC(=O)C4(C)c3cccc(O)c3)nc(CCC(F)(F)C(F)(F)F)nc21` (centres unmarked) [Example 44, 4-Amino-5-(3-hydroxyphenyl)-5-methyl-2-(6-(3,3,4,4,4-pentafluorobutyl)-1-trideuteriomethyl-1H-pyrazolo[3,4-d]pyrimidin-4-yl)-5H-pyrrolo[2,3-d]pyrimidin-6(7H)-one], the EC50 worked out at 111 nM and the Emax was 88%.

For `CCn1ncc2c(-c3nc(N)c4c(n3)NC(=O)C4(C)c3ccc(F)cc3)nc(CCCC(F)(F)F)nc21` (single isomer, unassigned) [Example 20, 4-Amino-2-(1-ethyl-6-(4,4,4-trifluorobutyl)-1H-pyrazolo[3,4-d]pyrimidin-4-yl)-5-(4-fluorophenyl)-5-methyl-5H-pyrrolo[2,3-d]pyrimidin-6(7H)-one], the 50% effective concentration (EC50) is 143 nM and the Emax was 123%.

One may read the EC50 as the concentration at which the effect is half-maximal. Low readings indicate an effect from little substance, high ones a need for much substance.
